Reference: ChEMBL document CHEMBL4828771, “Discovery and Development of a Potent, Selective, and Orally Bioavailable CHK1 Inhibitor Candidate: 5-((4-((3-Amino-3-methylbutyl)amino)-5-(trifluoromethyl)pyrimidin-2-yl)amino)picolinonitrile” (J Med Chem, 2021)
The source made the active and inactive calls. The calls are words filed in the database; no cut-off is given here.

Legend:
HT-29 [1] = assay: Induction of gamma-H2A.X in human HT-29 cells at 0.12 to 3.3 uM incubated for 12 hrs in presence of gemcitabine by Western blot analysis; format: functional, cell-based; details: dose 0.12-3.3 µM
[2] = Selectivity ratio of Antiproliferative activity against human HT-29 cells to Antiproliferative activity against human HT-29 cells in presence of gemcitabine; format: functional
HT-29 [3] = assay: Antiproliferative activity against human HT-29 cells incubated for 72 hrs by CCK8 assay; format: functional, cell-based
[4] = molecular target: T1, Serine/threonine-protein kinase Chk1 (Homo sapiens) (UniProt O14757); assay: Inhibition of CHK1 in human HT-29 cells assessed as […] residue at 0.12 to 3.3 uM incubated for 12 hrs in presence of gemcitabine by Western blot analysis; format: cell-based; details: dose 0.12-3.3 µM
T1 sequence (whole entry): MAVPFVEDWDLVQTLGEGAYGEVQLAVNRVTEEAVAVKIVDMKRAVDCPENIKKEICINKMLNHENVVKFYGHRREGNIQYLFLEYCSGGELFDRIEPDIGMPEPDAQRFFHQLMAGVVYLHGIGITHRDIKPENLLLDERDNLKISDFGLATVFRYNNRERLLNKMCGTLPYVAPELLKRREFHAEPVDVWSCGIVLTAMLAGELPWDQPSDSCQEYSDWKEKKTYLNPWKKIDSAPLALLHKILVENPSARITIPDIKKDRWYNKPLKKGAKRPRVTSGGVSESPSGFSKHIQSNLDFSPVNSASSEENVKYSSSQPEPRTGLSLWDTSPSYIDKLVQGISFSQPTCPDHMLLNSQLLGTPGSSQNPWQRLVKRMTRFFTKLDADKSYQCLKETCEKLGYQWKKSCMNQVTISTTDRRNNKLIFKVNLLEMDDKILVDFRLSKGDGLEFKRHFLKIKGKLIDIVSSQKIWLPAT

A549 = assay: Antiproliferative activity against human A549 cells incubated for 72 hrs in presence of gemcitabine by CCK8 assay; format: functional, cell-based
Mus musculus = assay: Induction of S296 phosphorylation in tumor of mouse xenografted with human HT-29 cells at 30 mg/kg, po dosed 5 days/week for 22 days cotreated with gemcitabine by Western blot analysis; format: functional, organism-based; details: time 22.0 day
[5] = AUC (0 to infinity) in ICR mouse at 20 mg/kg, po measured after 0.083 to 48 hrs by LC-MS/MS analysis; format: ADME, organism-based; parameters: route oral, time upper 48 hrs, time lower 0.083 hrs, dose 20 mg/kg; details: in vivo
hERG (KCNH2) = hERG (KCNH2) (Homo sapiens, UniProt Q12809); assay: Inhibition of human ERG expressed in HEK293 cells at 10 uM by patch-clamp technique relative to control; format: cell-based; details: HEK293 cells that express hERG
hERG (KCNH2), sequence (Q12809 whole entry): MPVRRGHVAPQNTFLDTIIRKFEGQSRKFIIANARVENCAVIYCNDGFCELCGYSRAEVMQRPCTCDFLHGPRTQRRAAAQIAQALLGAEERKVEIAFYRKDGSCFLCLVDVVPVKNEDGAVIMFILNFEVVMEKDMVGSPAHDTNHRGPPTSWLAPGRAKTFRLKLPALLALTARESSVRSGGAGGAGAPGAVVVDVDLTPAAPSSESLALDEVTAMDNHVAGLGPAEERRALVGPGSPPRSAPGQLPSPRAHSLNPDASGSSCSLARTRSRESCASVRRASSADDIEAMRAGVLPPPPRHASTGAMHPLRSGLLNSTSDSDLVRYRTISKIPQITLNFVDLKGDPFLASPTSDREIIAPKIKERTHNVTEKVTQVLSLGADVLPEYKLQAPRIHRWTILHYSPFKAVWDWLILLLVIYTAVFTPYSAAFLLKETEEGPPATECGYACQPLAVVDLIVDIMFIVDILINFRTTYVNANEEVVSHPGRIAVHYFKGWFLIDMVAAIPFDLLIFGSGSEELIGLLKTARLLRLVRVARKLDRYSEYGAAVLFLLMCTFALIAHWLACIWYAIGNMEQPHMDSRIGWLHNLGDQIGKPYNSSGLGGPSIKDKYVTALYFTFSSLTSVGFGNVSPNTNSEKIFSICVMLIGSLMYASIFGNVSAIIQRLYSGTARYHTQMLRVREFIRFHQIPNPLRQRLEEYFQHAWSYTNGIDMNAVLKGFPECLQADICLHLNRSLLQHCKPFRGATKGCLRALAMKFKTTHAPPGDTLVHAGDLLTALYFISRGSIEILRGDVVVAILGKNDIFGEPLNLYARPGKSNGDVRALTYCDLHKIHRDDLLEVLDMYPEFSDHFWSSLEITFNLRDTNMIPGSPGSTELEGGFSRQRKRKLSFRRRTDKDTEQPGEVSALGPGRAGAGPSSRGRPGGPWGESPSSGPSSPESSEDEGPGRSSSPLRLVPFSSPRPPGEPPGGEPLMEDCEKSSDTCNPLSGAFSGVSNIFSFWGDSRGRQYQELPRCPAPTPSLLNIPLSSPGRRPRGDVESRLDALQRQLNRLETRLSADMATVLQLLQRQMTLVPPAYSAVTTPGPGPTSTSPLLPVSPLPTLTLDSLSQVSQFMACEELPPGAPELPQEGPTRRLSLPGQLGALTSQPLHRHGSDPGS

[6] = molecular target: T1, Serine/threonine-protein kinase Chk1 (Homo sapiens); assay: Inhibition of CHK1 in human MV4-11 cells assessed as increase in phosphorylation at S345 residue incubated for 2 hrs by Western blot analysis; format: cell-based
[7] = Tmax in ICR mouse at 20 mg/kg, po measured after 0.083 to 48 hrs by LC-MS/MS analysis; format: ADME, organism-based; details: in vivo, time 0.083-48 hrs
MV4-11 [8] = assay: Antitumor activity against human MV4-11 cells xenografted in mouse assessed as inhibition of tumor growth at 5 mg/kg, po dosed for 21 days measured twice every week relative to control; format: functional; details: MV4-11, po, 504 h, time 21 day, read-out: TGI
HT-29 [9] = assay: Antitumor activity against human HT-29 cells xenografted in mouse assessed as reduction in tumor growth by measuring T/C ratio at 30 mg/kg, po dosed 5 days/week for 22 days measured twice every week; format: functional; details: time 22 day
MV4-11 [10] = assay: Antitumor activity against human MV4-11 cells xenografted in mouse assessed as inhibition of tumor growth at 15 mg/kg, po dosed for 21 days measured twice every week relative to control; format: functional; details: MV4-11, po, 504 h, time 21 day, read-out: TGI
[11] = molecular target: T1, Serine/threonine-protein kinase Chk1 (Homo sapiens); assay: Inhibition of CHK1 in human HT-29 cells assessed as […] residue at 1.1 uM incubated for 12 hrs by Western blot analysis; format: cell-based
[12] = Selectivity ratio of Antiproliferative activity against human RPMI-8226 cells to Antiproliferative activity against human RPMI-8226 cells in presence of gemcitabine; format: functional
RPMI-8226 = assay: Antiproliferative activity against human RPMI-8226 cells incubated for 72 hrs by CCK8 assay; format: functional, cell-based
MV4-11 [13] = assay: Antitumor activity against human MV4-11 cells xenografted in po dosed mouse assessed as inhibition of tumor growth administered for 21 days measured twice every week relative to control; format: functional, organism-based; details: time 21.0 day

- Activity [4]: Active
- AUC(0-inf) [5]: 22700 ng·h/mL
- Activity [6]: Dose-Dependent Effect
- Tmax [7]: 4 h
- Activity [11]: Active
Compound: CC(C)(N)CCNc1nc(Nc2ccc(C#N)nc2)ncc1C(F)(F)F
- Activity (HT-29 [1]): Active
- Ratio [2]: 100
- Activity (HT-29 [3]): Active
- Activity (A549): Active
- Activity (Mus musculus): Active
- inhibition at 10 µM (hERG (KCNH2)): 35.5%
- inhibition in vivo at 5 mg/kg (MV4-11 [8]): 51.6%
- T/C (HT-29 [9]): 69.05%
- inhibition in vivo at 15 mg/kg (MV4-11 [10]): 95.5%
- Ratio [12]: 100
- Activity (RPMI-8226): Active
- Activity (MV4-11 [13]): Dose-Dependent Effect
